Molecules are shown by their SMILES.

Broadly, the EC90 is the concentration at which the effect reaches the 90% level.

The first assay has as its system HCV replicon cells. Kind of assay: Cell-based HCV replicon assay (replicon RNA level by real time PCR, Taqman). Conditions: HCV replicon cells, replicon RNA level by real time PCR, harvested day 3; read-out: EC90 (μM) range. In a few lines:
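HCV replicon cells treated 3 days with 10 serial 2-fold compound dilutions (top 25 μM to 1 μM; 0.5% DMSO, 10% FBS). Replicon RNA quantified by multiplex Taqman RT-PCR (NS5B amplicon, GAPDH control); EC50 and EC90 = concentrations giving ΔCT of 1 and 3.2 over baseline.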
(In general: Replicon systems follow genome replication, usually without infectious particles.)
Turning to `Cc1nc(NCC(F)(F)F)nc(N[C@@H]2C[C@H](C(C)O)[C@@H](O)[C@H]2O)c1-c1nc2ccccc2s1` (single isomer, unassigned) [Example 1648], the EC90 was in the range of 0.5 to 5 µM.

Staying with this assay, now noted: Hepatitis C virus, 72 h, HCV replicon cells, harvested day 3, replicon RNA by real time PCR; reported as range class; read-out: EC90 (μM) range.
For the compound `COc1cc2cc(-c3c(Cl)nc(N)nc3N[C@@H]3C[C@H](CO)[C@@H](O)[C@H]3O)oc2c(C)n1` [Example 14], the EC90 was less than 0.5 µM.

`COc1cc2cc(-c3c(Cl)nc(N)nc3N[C@@H]3C[C@H](CO)[C@@H](O)[C@H]3O)oc2cn1` [Example 11]: the 90% effect concentration (EC90) is less than 0.5 µM. Same read-out and setting: the result for `COCc1cc2cc(-c3c(Cl)nc(N)nc3N[C@@H]3C[C@H](CO)[C@@H](O)[C@H]3O)oc2cn1` [Example 310] reads less than 0.5 µM; that for `Cc1nc(NCC(F)(F)F)nc(N[C@@H]2C[C@H](CO)[C@@H](O)[C@H]2O)c1-c1nc2ccccc2s1` [Example 125], less than 0.5 µM. Still for that read-out and setting: next, `CCN(C)c1nc(Cl)c(-c2nc3ccccc3s2)c(N[C@@H]2C[C@H](CO)[C@@H](O)[C@H]2O)n1` [Example 318]: less than 0.5 µM; `OC[C@H]1C[C@@H](Nc2nc(NCCCC(F)(F)F)nc(Cl)c2-c2nc3ccccc3s2)[C@H](O)[C@@H]1O` [Example 224]: less than 0.5 µM. The same measure, in the same setting: the result for `CN(C)C(=O)c1ccc2oc(-c3c(Cl)nc(N)nc3N[C@@H]3C[C@H](CO)[C@@H](O)[C@H]3O)cc2c1` [Example 168] reads more than 5 µM; that for `Nc1nc(Cl)c(-c2nc3ccc(OCc4ccccc4)cc3s2)c(N[C@@H]2C[C@H](CO)[C@@H](O)[C@H]2O)n1` [Example 199], more than 5 µM; that for `Nc1nc(Cl)c(-c2cc3cc(C(=O)N4CCOCC4)ccc3o2)c(N[C@@H]2C[C@H](CO)[C@@H](O)[C@H]2O)n1` [Example 175], more than 5 µM.

On to `CC1(C)O[C@@H]2[C@@H](CO)C[C@@H](Nc3nc(N)nc(Cl)c3-c3nc4ccccc4s3)[C@@H]2O1` [Example 184], for which the EC90 was less than 0.5 µM. The same measure, in the same setting: the result for `CN(C)c1nc(Cl)c(-c2nc3ccccc3s2)c(N[C@@H]2C[C@H](CO)[C@@H](O)[C@H]2O)n1` [Example 408] reads less than 0.5 µM.

The assay is the same for the next values; noted with them: Hepatitis C virus, 72 h, HCV replicon cells, harvested on day 3, replicon RNA by real time PCR; calculated EC90 reported as range class; read-out: EC90 (μM) range.
Regarding `Cc1nc(NCC2CCCO2)nc(N[C@@H]2C[C@H](CO)[C@@H](O)[C@H]2O)c1-c1nc2ccccc2s1` (stereo partly drawn) [Example 325], the EC90 was less than 0.5 µM. The same measure, in the same setting: the result for `Cc1nc(NCc2cccs2)nc(N[C@@H]2C[C@H](C)[C@@H](O)[C@H]2O)c1-c1nc2ccccc2s1` [Example 337] reads less than 0.5 µM; that for `Cc1ccc(CNc2nc(C)c(-c3nc4ccccc4s3)c(N[C@@H]3C[C@H](CO)[C@H]4OC(C)(C)O[C@H]43)n2)s1` [Example 496], less than 0.5 µM.

Consider `Cc1cc2cc(-c3c(Cl)nc(N(C)C)nc3N[C@@H]3C[C@H](CO)[C@@H](O)[C@H]3O)oc2c(C)n1` [Example 420], for which the concentration for an effect of 90% (EC90) is more than 5 µM. Same read-out and setting: the result for `CCCCCCNc1nc(Cl)c(-c2nc3ccccc3s2)c(N[C@@H]2C[C@H](CO)[C@@H](O)[C@H]2O)n1` [Example 454] reads less than 0.5 µM; that for `Cc1nc(NCc2ccncc2)nc(N[C@@H]2C[C@H](CO)[C@H]3OC(C)(C)O[C@H]32)c1-c1nc2ccccc2s1` [Example 464], less than 0.5 µM; that for `CCOCCNc1nc(C)c(-c2cc3cc(C(F)(F)F)ncc3o2)c(N[C@@H]2C[C@H](CO)[C@H]3OC(C)(C)O[C@H]32)n1` [Example 134], more than 5 µM. As for `CCc1cc2cc(-c3c(C)nc(NCc4ccco4)nc3N[C@@H]3C[C@H](CO)[C@H]4OC(C)(C)O[C@H]43)oc2cn1` [Example 704], the EC90 was less than 0.5 µM. Still for that read-out and setting: the result for `Cc1nc(NCc2nccs2)nc(N[C@@H]2C[C@H](CO)[C@H]3OC(C)(C)O[C@H]32)c1-c1nc2ccccc2s1` [Example 472] reads less than 0.5 µM; that for `CCCCCNc1nc(Cl)c(-c2cc3cc(CC)ncc3o2)c(N[C@@H]2C[C@H](CO)[C@@H](O)[C@H]2O)n1` [Example 511], less than 0.5 µM.

The assay is the same for the next values; noted with them: Hepatitis C virus, 72 h, HCV replicon cells, replicon RNA level by real time PCR (Taqman), day 3; calculated EC90; read-out: EC90 (μM) range.
Turning to `Cc1nc(NCC(F)(F)F)nc(N[C@@H]2C[C@H](CO)[C@@H](O)[C@H]2O)c1-c1nc2cnccc2o1` [Example 2001], the 90% effect concentration (EC90) was 0.5 to 5 µM.

Staying with this assay, now noted: Hepatitis C virus, 72 h, HCV replicon cells, replicon RNA level by real time PCR (Taqman), harvested on day 3; calculated EC90 reported as range class; read-out: EC90 (μM) range.
As for `COc1cccc2sc(-c3c(C)nc(N[C@H](C)c4ccc(C)cc4)nc3N[C@@H]3C[C@H](CO)[C@@H](O)[C@H]3O)nc12` [Example 1068], the EC90 is 0.5 to 5 µM. Same read-out and setting: next, `Cc1nc(NCc2ccco2)nc(N[C@@H]2C[C@H](CO)[C@@H](O)[C@H]2O)c1-c1nc2cnccc2s1` [Example 1215]: less than 0.5 µM. Still for that read-out and setting: the result for `CNc1ccc2oc(-c3c(C)nc(NCC(F)(F)F)nc3N[C@@H]3C[C@H](CO)[C@@H](O)[C@H]3O)nc2c1` [Example 1064] reads more than 5 µM; that for `Cc1nc(NCC(C)(C)F)nc(N[C@@H]2C[C@H](CO)[C@@H](O)[C@H]2O)c1-c1nc2ccccc2s1` [Example 1243], 0.5 to 5 µM.

As to `Cc1cc(CNc2nc(C)c(-c3nc4cnccc4s3)c(N[C@@H]3C[C@H](CO)[C@@H](O)[C@H]3O)n2)on1` [Example 538], the 90% effect concentration (EC90) was less than 0.5 µM.

As to `Cc1nc(NCC(C)(C)C)nc(N[C@@H]2C[C@H](CO)[C@@H](O)[C@H]2O)c1-c1cc2cc(C(C)(C)C)ncc2o1` [Example 1104], the EC90 is more than 5 µM. With `Cc1nc(NCc2cccc(O)c2)nc(N[C@@H]2C[C@H](CO)[C@@H](O)[C@H]2O)c1-c1nc2ccccc2s1` [Example 1212], the EC90 was less than 0.5 µM.

As to `Cc1nc(NCC(C)(C)C)nc(N[C@@H]2C[C@H](CO)[C@@H](O)[C@H]2O)c1-c1nc2c(C)nccc2s1` [Example 1319], the EC90 is less than 0.5 µM. The same measure, in the same setting: next, `Cc1nc(N[C@@H](C)c2ccccc2)nc(N[C@@H]2C[C@H](CO)[C@@H](O)[C@H]2O)c1-c1nc2cnccc2s1` [Example 1305]: 0.5 to 5 µM; `Cc1nc(NCC(F)(F)F)nc(N[C@@H]2C[C@H](CO)[C@@H](O)[C@H]2O)c1-c1nc2cnccc2s1` [Example 532]: less than 0.5 µM; `COc1cccc2sc(-c3c(C)nc(NCC4CC4)nc3N[C@@H]3C[C@H](CO)[C@@H](O)[C@H]3O)nc12` [Example 1067]: less than 0.5 µM.

As to `Cc1nc(NCC(C)(C)CC2CC2)nc(N[C@@H]2C[C@H](CO)[C@@H](O)[C@H]2O)c1-c1nc2cnccc2s1` [Example 1318], the EC90 was less than 0.5 µM. Same read-out and setting: the result for `[2H]C([2H])(Nc1nc(C)c(-c2nc3ccccc3s2)c(N[C@@H]2C[C@H](CO)[C@@H](O)[C@H]2O)n1)C(F)(F)F` [Example 1250] reads 0.5 to 5 µM; that for `COc1ccc(Nc2nc(C)c(-c3nc4ccccc4s3)c(N[C@@H]3C[C@H](CO)[C@@H](O)[C@H]3O)n2)cc1` [Example 1221], 0.5 to 5 µM; that for `COCc1cc2cc(-c3c(C)nc(NCc4ccco4)nc3N[C@@H]3C[C@H](CO)[C@H]4OC(C)(C)O[C@H]43)oc2cn1` [Example 1107], 0.5 to 5 µM. `Cc1nc(NCc2cc(Cl)cc(Cl)c2)nc(N[C@@H]2C[C@H](CO)[C@H]3OC(C)(C)O[C@H]32)c1-c1nc2ccccc2s1` [Example 1113]: the 90% effect concentration (EC90) is 0.5 to 5 µM. Still for that read-out and setting: next, `Cc1nc(NCC2CC2)nc(N[C@@H]2C[C@H](CO)[C@@H](O)C2)c1-c1nc2ccccc2s1` [Example 1240]: 0.5 to 5 µM. Same read-out and setting: the result for `COCCNc1nc(C#N)c(-c2nc3ccccc3s2)c(N[C@@H]2C[C@H](CO)[C@@H](O)[C@H]2O)n1` [Example 1301] reads more than 5 µM; that for `COc1cccc(C)c1Nc1nc(C)c(-c2nc3ccccc3s2)c(N[C@@H]2C[C@H](CO)[C@@H](O)[C@H]2O)n1` [Example 1233], 0.5 to 5 µM.

Still in this assay, the particulars now being: Hepatitis C virus, 72 h, HCV replicon cells, replicon RNA level by real time PCR, harvested day 3; read-out: EC90 (μM) range.
For the compound `CC(=O)OC[C@H]1C[C@@H](Nc2nc(N)nc(C)c2-c2nc3ccccc3s2)[C@H](O)[C@@H]1O` [Example 1915], the 90% effect concentration (EC90) is more than 5 µM. On the same count and under the same terms, the result for `COc1ccc(CCNc2nc(C)c(-c3nc4cnccc4s3)c(N[C@@H]3CC[C@@H](O)[C@@]3(C)O)n2)cc1Cl` [Example 1818] reads 0.5 to 5 µM; that for `CCc1ccc([C@@H](C)Nc2nc(C)c(-c3nc4c(C)nccc4s3)c(N[C@@H]3C[C@H](CO)[C@@H](O)[C@H]3O)n2)cc1` [Example 1526], less than 0.5 µM.

Take `Cc1nc(N[C@H](C)c2ccc(C(F)(F)F)cc2)nc(N[C@@H]2C[C@H](CO)[C@@H](O)[C@H]2O)c1-c1nc2c(C)nccc2s1` [Example 1356]: the EC90 is less than 0.5 µM. Still for that read-out and setting: next, `Cc1ccc([C@H](C)Nc2nc(C)c(-c3nc4cnccc4s3)c(N[C@@H]3CC[C@@H](O)[C@@]3(C)O)n2)cc1` [Example 1810]: less than 0.5 µM; `Cc1nc(N[C@@H](c2ccc(OC(F)(F)F)cc2)C(F)(F)F)nc(N[C@@H]2C[C@H](CO)[C@@H](O)[C@H]2O)c1-c1nc2c(C)nccc2s1` [Example 1546]: less than 0.5 µM; `CCc1nccc2sc(-c3c(C)nc(NCC(F)(F)F)nc3N[C@@H]3C[C@H](CO)[C@@H](O)[C@H]3O)nc12` [Example 1340]: less than 0.5 µM. Same read-out and setting: the result for `COc1ccc(CCNc2nc(C)c(-c3nc4cnccc4s3)c(N[C@@H]3C[C@H](CO)[C@@H](O)[C@H]3O)n2)cc1Cl` [Example 1913] reads 0.5 to 5 µM. Same read-out and setting: the result for `COc1ccc([C@@H](C)Nc2nc(C)c(-c3nc4c(C)nccc4s3)c(N[C@@H]3C[C@H](CO)[C@@H](O)[C@H]3O)n2)cc1` [Example 1529] reads less than 0.5 µM.

As to `Cc1nc(NC2CCC2)nc(N[C@@H]2C[C@H](CO)[C@@H](O)[C@H]2O)c1-c1nc2ccccc2s1` [Example 1503], the 90% effect concentration (EC90) is 0.5 to 5 µM.

On to `CCOc1cc2cc(-c3c(C)nc(NCC4CC4)nc3N[C@@H]3C[C@H](CNS(C)(=O)=O)[C@@H](O)[C@H]3O)oc2c(C)n1` [Example 1347], for which the EC90 is less than 0.5 µM. The same measure, in the same setting: next, `Cc1nc(NCC(C)(C)C)nc(N[C@@H]2C[C@H](CO)[C@@H](O)[C@H]2O)c1-c1nc2ccccc2o1` [Example 1359]: less than 0.5 µM.

The values are drawn from patent publication US8697694B2, “Substituted pyridine and pyrimidine derivatives and their use in treating viral infections” (priority 2008, dated 2014).
